Patent US7084167B2, “Calcium receptor active molecules and method for preparing same” (Centre National de la Rechereche Scientifique (CNRS), priority 2000, dated 2006)

Assays:
CaSR = biological target: T1, CaSR (Rattus norvegicus, UniProt P48442); assay: Accumulation of tritiated inositol phosphates in CHO(CaSR) cells; type: cell-based; conditions: for activation at 10 µM / activity at 10 µM: compound 10 μM; for activation at 10 µM: in the presence of 2 mM Ca2+; for activation at 10 µM / activation at 1 µM: CHO(CaSR) cells, read-out: Accumulation of (3H)-IP % of the 10 mM Ca2+ response ± S.E.; for activity at 10 µM: basal level at 2 mM Ca2+ = 100%, read-out: Accumulation of (1H)-IP % of basal level, CHO (CaSR); for activity greater than that of calcium (10 mM) / activation at 1 µM: compound 1 μM
T1 construct: expressed in transfected cells; host or cells: CHO (Chinese hamster ovary) cells, CHO(CaSR)
T1 sequence (P48442 20-1079): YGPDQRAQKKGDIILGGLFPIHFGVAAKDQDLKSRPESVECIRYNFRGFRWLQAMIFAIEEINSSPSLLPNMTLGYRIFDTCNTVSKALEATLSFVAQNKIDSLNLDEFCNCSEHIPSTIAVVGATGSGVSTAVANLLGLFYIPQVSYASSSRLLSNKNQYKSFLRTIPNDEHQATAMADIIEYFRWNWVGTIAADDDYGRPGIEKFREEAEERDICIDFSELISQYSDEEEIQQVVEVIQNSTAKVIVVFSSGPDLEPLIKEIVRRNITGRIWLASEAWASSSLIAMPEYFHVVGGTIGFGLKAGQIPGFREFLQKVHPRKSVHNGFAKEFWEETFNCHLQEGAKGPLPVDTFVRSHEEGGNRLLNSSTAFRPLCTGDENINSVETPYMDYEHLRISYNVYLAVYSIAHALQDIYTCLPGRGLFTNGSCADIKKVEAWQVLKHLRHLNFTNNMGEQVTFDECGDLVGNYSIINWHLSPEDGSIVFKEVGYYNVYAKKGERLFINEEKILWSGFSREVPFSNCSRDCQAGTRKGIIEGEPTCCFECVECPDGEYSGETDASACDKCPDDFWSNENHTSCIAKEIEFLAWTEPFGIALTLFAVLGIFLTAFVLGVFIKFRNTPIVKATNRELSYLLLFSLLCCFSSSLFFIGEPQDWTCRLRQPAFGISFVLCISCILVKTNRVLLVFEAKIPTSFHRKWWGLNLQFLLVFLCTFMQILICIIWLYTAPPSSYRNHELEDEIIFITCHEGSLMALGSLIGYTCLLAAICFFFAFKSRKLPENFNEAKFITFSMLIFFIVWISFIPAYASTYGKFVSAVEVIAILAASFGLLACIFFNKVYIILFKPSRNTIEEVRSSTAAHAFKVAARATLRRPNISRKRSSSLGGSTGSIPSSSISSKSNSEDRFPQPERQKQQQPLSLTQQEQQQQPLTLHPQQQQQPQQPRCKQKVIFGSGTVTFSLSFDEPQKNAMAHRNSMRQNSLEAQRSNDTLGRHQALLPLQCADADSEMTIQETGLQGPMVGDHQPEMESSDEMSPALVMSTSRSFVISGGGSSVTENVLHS
Text: The complementary DNA encoding rat CaSR has been isolated from a rat striatum cDNA library (Ruat et al, Proc. Natl. Acad. Sci., 1995). This receptor is identical, in terms of its amino acid sequence, to that expressed in the other tissues. Transfected Chinese hamster ovary (CHO) cells expressing rat CaSR (CHO(CaSR)) have been characterized and the chemical signals (second messengers) induced by activation of this receptor have been analyzed. Thus, a biochemical test for measuring the accumulation of tritiated inositol phosphates, [^3H]IPs, in response to activation of the receptor has been developed (Ruat et al, J. Biol. Chem., 1996; Ferry et al, Biochem. Biophys. Res. Common., 1997).
The calcimimetic activity of the compounds was estimated by measuring the accumulation of tritiated inositol phosphates, […] Ca^2+, in CHO(CaSR) cells (Ferry et al, Biochem Biophys Res Commun, 1997).
This activation was compared with that induced by the compound NPS-R-568, a reference calcimimetic used at a concentration of 10 μM (Table 1) (Ferry et al, Biochem Biophys Res Commun, 1997; Nemeth et al, Proc Natl Acad Sci USA, 1997).
The calcimimetic activity of the PHD/AK compounds is compared with that of a reference compound, NPS-R-568, used at the same concentration and under the same experimental conditions. This activity is expressed as a percentage of the activity of 10 mM of Ca^2+. The means±standard errors of the means of 2 to 5 independent manipulations are indicated. The experiments were carried out in the presence of 2 mM of Ca^2+.
(§1) The accumulation of tritiated inositol phosphates is expressed as a percentage of the basal level observed in the presence of 2 mM Ca^2+ (100%) in CHO (WT^+) or CHO(CaSR) cells.

CHO (WT*) cells = assay: Accumulation of tritiated inositol phosphates in control CHO(WT*) cells not expressing the CaSR; type: cell-based, Chinese hamster; conditions: Cricetulus griseus, 1 h; compound 10 μM; basal level at 2 mM Ca2+ = 100%; read-out: Accumulation of (3H)-IP % of basal level, CHO (WT*)
Description: as §1

[1] = biological target: T2, receptors of the parathyroid (Rattus norvegicus, UniProt P48442); conditions: rats; cited from earlier work
T2 construct: from tissue; host or cells: parathyroid gland of rats (in vivo)
T2 sequence (P48442 20-1079): T1 sequence (P48442 20-1079)

[2] = clinical trials phase I-II; cited from earlier work
[3] = oral, menopausal women with primary hyperparathyroidism; cited from earlier work
[4] = rats; cited from earlier work
[5] = patients (men) suffering from chronic renal failure; cited from earlier work

Row | SMILES | activation at 10 µM (CaSR) [%] | activity at 10 µM (CaSR) [%] | activity at 10 µM (CHO (WT*) cells) [%] | activity greater than that of calcium (10 mM) (CaSR) | activation at 1 µM (CaSR) [%] | other results
1 | CC(NCc1cc2ccccc2n1C)c1cccc2ccccc12 (stereo not drawn) [AK 43] | 79 ± 13 | 401 ± 16 | 109 ± 2 | – | – | –
2 | COc1cccc([C@@H](C)NCCCc2ccccc2)c1 [NPS R-467] | – | – | – | – | – | selectivity, receptors of the parathyroid compared with those of the thyroid gland [1]: more selective
3 | COc1cccc([C@@H](C)NCCCc2ccccc2Cl)c1.Cl [NPS R-568] | 106 ± 15 | 454 ± 33 | 110 ± 9 | – | – | bioavailability [2]: low; concentrations of PTH [3]: lower; concentrations of free serum Ca2+ ions [3]: lower; osteitis fibrosa [4]: reduces or eliminates osteitis fibrosa; PTH concentrations [5]: reduces PTH concentrations
4 | C[C@@H](NCc1cc2ccccc2[nH]1)c1cccc2ccccc12.Cl.Cl [PHD 337-R, (R)-N-[(indole-2-yl)methyl]-N-[1-(1-naphthyl)ethyl]amine.HCl] | – | 588 ± 129 | 130 ± 9 | 50% | 73 ± 10 | melting point: 204 °C
5 | C[C@H](NCc1cc2ccccc2[nH]1)c1cccc2ccccc12 [PHD 337-S] | 32 ± 5 | 225 ± 7 | 132 ± 1 | – | 3 ± 2 | –
6 | CC(NCc1cc2ccccc2[nH]1)c1cccc2ccccc12.Cl.Cl (stereo not drawn) [PHD 337] | 90 to 100 | 444 ± 101 | 147 ± 14 | 50% | 69 ± 9 | –
7 | COc1ccc(S(=O)(=O)n2c(CNC(C)c3cccc4ccccc34)cc3ccccc32)cc1OC (stereo not drawn) [PHD 338] | 54 ± 5 | 202 ± 9 | 111 ± 10 | – | – | –
8 | COc1cccc([C@@H](C)NCc2cc3ccccc3[nH]2)c1 [PHD 356] | 90 to 100 | 482 ± 58 | 151 ± 7 | 50% | 76 ± 1 | –
9 | COc1ccc2[nH]c(CNC(C)c3cccc4ccccc34)cc2c1 (stereo not drawn) [PHD 359] | 55 ± 5 | 303 ± 42 | 117 ± 8 | – | – | –
10 | CC(NCc1cc2cc(F)ccc2[nH]1)c1cccc2ccccc12 (stereo not drawn) [PHD 361] | 87 ± 7 | 420 ± 70 | 133 ± 3 | – | – | –
11 | CC(NCc1cc2cc(Cl)ccc2[nH]1)c1cccc2ccccc12.Cl.Cl (stereo not drawn) [PHD 363] | 60 ± 1 | 325 ± 67 | 125 ± 12 | less active | 6 ± 3 | –
12 | CC(NCC1Cc2ccccc2N1)c1cccc2ccccc12 (stereo not drawn) [PHD 368] | 77 ± 1 | 388 ± 85 | 126 ± 6 | – | – | –
